Test results published in US20070010397A1, “Safeners and their application” (priority 2003, published 2007).

Key:
[1] = system: paddy rice (variety: Nipponbare); experiment: Test for safening effect against phytotoxicity of herbicidal compounds against paddy rice; type: in vivo
Method: (§1) Test results were evaluated by Colby's equation. Colby's equation: [formula]
Test Example 2: Test for Safening Effect against Phytotoxicity of Herbicidal Compounds against Paddy Rice (Method)
Two seedlings of paddy rice (variety: Nipponbare) of 2.5 leaf stage were transplanted in a plastic pot under submerged conditions with a trnsplantation depth of 0 cm. A diluted solution with the prescribed concentration of the 4% granules of the compound No. I-1 and herbicidal compounds were applied on the water surface. Three weeks after the application the degree of phytotoxicity was observed and evaluated in 0-100%.
100%=Complete withering state

[2] = system: wheat (variety: Norin No.61); experiment: Test for safening effect against phytotoxicity of herbicidal compounds against wheat; type: in vivo; settings: for Phytotoxicity %: wheat seeds in dish, after 5 days; for Expected value E by Colby's equation (Phytotoxicity %): wheat
Method: Preparation of Test Solution
Carrier: Acetone 5 parts by weight
Surfactant: Benzyloxy polyglycol ether 1 part by weight
A prescribed amount of the test solution is prepared by diluting with water the formulation obtained by mixing the above-mentioned carrier and surfactant with 1 part by weight of the active compounds (safeners and herbicidal compounds).
Test Example 1: Test for Safening Effect against Phytotoxicity of Herbicidal Compounds against Wheat
Seeds of wheat (variety: Norin No.61) were sown on absorbent cotton in a dish, containing the previously prepared, diluted solution with the prescribed concentration of the test compounds, and grown in a climate chamber. After 5 days the degree of phytotoxicity, particularly bleaching state, was observed and evaluated in 0-100%.
100% =Complete bleaching or withering state
as §1
E: Expected value of phytotoxicity by mixing
X: Measured value of phytotoxicity by one active compound • Y: Measured value of phytotoxicity by the other active compound Table 1

[3] = safener 10 ppm alone (H-1 0 ppm), 0% = no phytotoxicity, 100% = complete bleaching or withering
[4] = safener 50 ppm alone (H-1 0 ppm)

Compound	Phytotoxicity % ([2]; safener 10 ppm + H-1 10 ppm)	Phytotoxicity % [2, 3]	Phytotoxicity % ([2]; safener 50 ppm + H-1 10 ppm)	Phytotoxicity % [2, 4]	Expected value E by Colby's equation (Phytotoxicity %) ([2]; safener 10 ppm + H-1 10 ppm)	Expected value E by Colby's equation (Phytotoxicity %) ([2]; safener 50 ppm + H-1 10 ppm)	also measured
CS(=O)(=O)c1ccc(C(=O)C2=C(O)CCCC2=O)c(Cl)c1COCC1CCCO1 (stereo not drawn) [H-1]	–	–	–	–	–	–	Phytotoxicity % ([1]; paddy rice, three weeks after application, H-1 0.6 kg/ha + No. I-1 1 kg/ha): 10%; Phytotoxicity % ([1]; paddy rice, three weeks after application, H-1 0.6 kg/ha alone (No. I-1 0 kg/ha)): 30%; Expected value E by Colby's equation (Phytotoxicity %) ([1]; paddy rice, H-1 0.6 kg/ha + No. I-1 1 kg/ha): 30%; Phytotoxicity % ([2]; H-1 10 ppm alone (safener 0 ppm)): 50%
COC(=O)c1ccccc1CS(=O)(=O)NC(=O)Nc1nc(OC)cc(OC)n1 [H-2, Bensuiliron-methyl]	–	–	–	–	–	–	Phytotoxicity % ([1]; in vivo): 40%
CCOC(=O)[C@@H](C)Oc1ccc(Oc2nc3ccc(Cl)cc3o2)cc1 [H-3, Fenoxaprop-P-ethyl]	–	–	–	–	–	–	Phytotoxicity % ([1]; paddy rice, three weeks after application, H-3 0.1 kg/ha + No. I-1 1 kg/ha): 40%; Phytotoxicity % ([1]; paddy rice, three weeks after application, H-3 0.1 kg/ha alone (No. I-1 0 kg/ha)): 70%; Expected value E by Colby's equation (Phytotoxicity %) ([1]; paddy rice, H-3 0.1 kg/ha + No. I-1 1 kg/ha): 70%
N#Cc1ccccc1NC(=O)c1snc(Cl)c1Cl [No. I-1]	20%	0%	20%	0%	50%	50%	Phytotoxicity % ([1]; paddy rice 2.5 leaf stage, three weeks after application, No. I-1 (4% granules) 1 kg/ha alone, herbicide 0 kg/ha): 0%
Cc1ccc(NC(=O)c2snc(Cl)c2Cl)c(C)c1 [No. I-2]	30%	0%	10%	0%	50%	50%	–
CN(C)CNC(=O)c1snc(Cl)c1Cl [No. I-3]	5%	0%	0%	0%	50%	50%	–
CCC(C)c1ccc(NC(=O)c2snc(Cl)c2Cl)cc1 (stereo not drawn) [No. I-4]	10%	0%	5%	0%	50%	50%	–
CCC(CC)c1ccc(NC(=O)c2snc(Cl)c2Cl)cc1 [No. I-5]	30%	0%	10%	0%	50%	50%	–
CCN(CC)Cc1ccc(CNC(=O)c2snc(Cl)c2Cl)cc1 [No. I-6]	15%	0%	15%	0%	50%	50%	–
CC(C)(C)CSCc1ccc(NC(=O)c2snc(Cl)c2Cl)cc1 [No. I-7]	30%	0%	20%	0%	50%	50%	–
